Results: patent EP1925625A2, “Method for screening modulators of mitochondrial functionning and new modulators obtained” (Theraptosis S.A., priority 2002, dated 2008)

Key:
[1] = system: purified mouse liver mitochondria; test: Flow cytometric analysis of mitochondrial transmembrane potential (JC-1) on isolated mitochondria; conditions: for changes of JC-1 fluorescence (ΔΨm): real-time, 20 µM mClCCP, 30 µM Ca2+ or alamethicin
Description: (§1) Liver mitochondria were isolated from 3-4 weeks old Balb-c mice (IFFA CREDO, Saint Germain sur l'Arbresle, France). Animals were fasted overnight before being killed by […] dislocation. Liver mitochondria were prepared as described (Jacotot, 2000). All steps were carried out at 4°C. Finally, the organelles were resuspended in 'swelling buffer', composed by 200 mM sucrose, 5 mM succinate, 10 mM Tris-MOPS (pH 7.4), 1 mM H3PO4, 2 µM Rotenone, and 10 µM EGTA at pH=7.4. Spectrophotometric and flow cytometric analyses were performed in this buffer. The protein content of isolated mitochondria was determined by the Bradford assay.
Mitochondrial transmembrane potential (ΔΨm) was assessed by 5,5',6,6',-tetracholoro-1,1,3,3'-tetraethylbenzimidazolyl carbocyanine iodide (JC-1, Molecular Probes) incorporation. This potential-sensitive cationic dye accumulates in the mitochondrial matrix according to the Nernst equation (Reers et al., 1991). JC-1 green fluorescence, associated with JC-1 monomers was collected in the FL-1 channel. JC-1 orange fluorescence, associated with the formation of J-aggregates was collected in the FL-2 channel (585 +/- 21 nm) (Reers et al, 1991). Both fluorescences were recorded in logarithmic amplifier mode, using the PMT at a voltage adjusted to 907 and 622 respectively. Spectral overlap was avoided by adjusting compensation network as follows: FL1 - 18.5% FL2 and FL2 - 25.4% FL1. The JC-1 orange green fluorescence ratio was calculated with the FCS Assistant software.
Fixed-time detection of ΔΨM was performed on mitochondrial samples containing 10 µg proteins in 100 µl of swelling buffer. Samples were submitted to MPT-inducing drugs for 15 min at 25°C, and JC-1 was added at 800 nM for 15 min at 37°C in the dark. Samples were immediately analyzed by flow cytometry, and data from 20.000 mitochondria (gated on FSC-SSC parameters) were recorded. This assay permitted to quantify the percentage of highly energized mitochondria (with both orange and green fluorescence) and depolarized mitochondria (with green fluorescence only) as depicted in part C2 of Fig.1.
Real-time monitoring of ΔΨm was performed on mitochondrial samples containing 1.5 µg proteins in 400 µl of swelling buffer. JC-1 loading was performed at 400 nM in for 15 minutes at 37°C. […] Then drugs were added to the sample, and ΔΨm variations were recorded for the following 16 minutes. Depolarization curves were drawn as previously indicated for swelling curves; the time scale was divided into discrete periods of 1 minute and the mean of JC-1 orange and JC-1 green fluorescence of the corresponding mitochondrial subsets was calculated by the CellQuest Pro software and exported into the Microsoft Excel software.

[2] = system: purified mouse liver mitochondria; test: Flow cytometric (real-time FCM) analysis of mitochondrial morphology (FSC/SSC) on isolated mitochondria; conditions: for changes of mitochondrial size (FSC) and structure (SSC): 1-30 µM Calcium, 20 µM CCCP or alamethicin added to isolated mitochondria; for effect on alamethicin induced MMP: pre-treatment with inhibitor, then alamethicin (5 µg/ml)
Description: as §1
Fluorescence-activated flow cytometry was performed using a 3-color FACSCalibur cytometer equipped with a 15 mW air-cooled 488 nm argon laser (Becton Dickinson, San Jose, CA). Mitochondria analyses were performed after appropriate settings of the Forward angle light scatter (FSC) - Side angle light scatter (SSC) detectors (see Fig. 1). Discrimination between mitochondria and cellular debris and noise background was performed by an appropriate gating on FSC-SSC scatter plots (Fig. 1)(Radcliff G, Jaroszeski MJ 1998 Methods Mol Biol 91:1-24 Basics of flow cytometry). Systematic confirmation of the validity of this gating was obtained by a labeling of mitochondria with the ΔΨm-insensitive mitochondrial dye MitoTracker® Green (MTG, Molecular Probes, Eugene, OR) (Jacotot et al., 2001). Briefly mitochondria (1.5 µg proteins) were respuspended in 400 µl swelling buffer containing 200 nM MTG for 15 min at room temperature. The organelles were immediately analyzed on the cytometer with the CellQuest Pro software (Becton Dickinson). MTG fluorescence was collected in the FL-1 channel (530 +/- 15 nm) and analyzed in logarithmic amplifier mode, using the PMT at a voltage adjusted to 907. Data from 20,000 gated mitochondria were recorded and analyzed.
Mitochondrial size was analyzed through the light scattered by the organelles at low angle using the Forward scatter (FSC) photodiode. Signals were collected using the E-00 setting, with a logarithmic amplification gain of 5.41. Mitochondrial structure was evaluated by the light scattered in the perpendicular direction. It was assessed by the sensitive Side scatter (SSC) photomultiplier tube (PMT), using a voltage of 581, and a linear amplification gain adjusted to 4.27. The morphological changes related to swelling of purified mitochondria were monitored by the increase in mitochondrial size (FSC) and the decrease in the organelle structure (SSC) using the CellQuest Pro software. The FSC/SSC ratio was calculated by the FCS Assistant software and permitted to integrate both variations in size and structure into only one parameter.
Fixed-time analyses were performed on mitochondrial samples containing 10 µg proteins in 100 µl of swelling buffer. Samples were submitted to MPP-inducing reagents for 30 min at 25°C. Samples were immediately analyzed by flow cytometry, and data from 20.000 mitochondria were recorded. The percentage of specific swelling determined on forward scatter was calculated as follows; (FSCCa2+ - FSCReagent ) x 100 / (FSCCa2+ - FSCCo), were FSCCa2+, FSCReagent and FSCCo correspond to the FSC values obtained for CaCl2- treated, reagent - treated and untreated mitochondria respectively. Similar calculation was used to determine the percentage of specific swelling on SSC and FSC/SSC ratio values.
Real-time experiments were performed on mitochondrial samples containing 1.5 µg proteins in 800 µl (= 2 ng / […]l) of swelling buffer. Samples were acquired on the flow cytometer for 5 minutes to record basal morphological criteria. Then reagents were added to samples, and variations in light scattering were recorded for the following 15 minutes. The sample flow rate was settled to 12 µl +/- 3 µl / min for both fixed- and real-time analyses. […]

[3] = 50 µM BA or 10 µM CsA 5 minutes, then 30 min Ca2+ (30 µM)

Row | Compound | changes of JC-1 fluorescence (ΔΨm) [1] | changes of mitochondrial size (FSC) and structure (SSC) [2] | effect on Ca2+ induced ΔΨm loss [1, 3] | effect on Ca2+ induced SSC decrease [2, 3] | effect on alamethicin induced MMP [2]
1 | alamethicin | a decrease in JC-1 orange fluorescence and a significant increase in JC-1 green fluorescence | simultaneous FSC increase and SSC decrease | – | – | –
2 | [Ca+2].[Cl-].[Cl-] [Calcium, CaCl2] | a decrease in JC-1 orange fluorescence and a significant increase in JC-1 green fluorescence | dose-dependent SSC decrease and FSC increase | – | – | –
3 | CO[C@H](C/C=C\C=C\CC/C=C/C[C@H](C)/C=C/C(=C\C(=O)O)CC(=O)O)/C(C)=C\C=C(/C)C(=O)O [bongkrekic acid] | – | – | strongly reduces | partly affect | not affected
4 | N.N.N.N.N.N.N.N.N.N.N.N.N.N.[Cl-].[Cl-].[Cl-].[Cl-].[Cl-].[Cl-].[O-2].[O-2].[Ru+3].[Ru+3].[Ru+4] [Ruthenium red] | – | – | – | – | not affected
5 | N#CC(C#N)=NNc1cccc(Cl)c1 [CCCP, carbonyl cyanide meta-chlorophenylhydrazone] | rapid decrease in JC-1 orange fluorescence and a slow decrease in monomeric JC-1 green fluorescence | low but significant granularity (SSC) decrease without detectable size (FSC) changes | – | – | –
